According to paper PMC7720687 (ERJ Open Research, 2020):

Experiments:
[1] = molecular target: T1, epithelial sodium channel (ENaC) (Mus musculus, UniProt Q61180+Q9WU38+Q9WU39); assay: Ussing chamber, amiloride-sensitive short-circuit current in M1 monolayers; assay type: cell-based
T1 sequence (Q61180 1-699): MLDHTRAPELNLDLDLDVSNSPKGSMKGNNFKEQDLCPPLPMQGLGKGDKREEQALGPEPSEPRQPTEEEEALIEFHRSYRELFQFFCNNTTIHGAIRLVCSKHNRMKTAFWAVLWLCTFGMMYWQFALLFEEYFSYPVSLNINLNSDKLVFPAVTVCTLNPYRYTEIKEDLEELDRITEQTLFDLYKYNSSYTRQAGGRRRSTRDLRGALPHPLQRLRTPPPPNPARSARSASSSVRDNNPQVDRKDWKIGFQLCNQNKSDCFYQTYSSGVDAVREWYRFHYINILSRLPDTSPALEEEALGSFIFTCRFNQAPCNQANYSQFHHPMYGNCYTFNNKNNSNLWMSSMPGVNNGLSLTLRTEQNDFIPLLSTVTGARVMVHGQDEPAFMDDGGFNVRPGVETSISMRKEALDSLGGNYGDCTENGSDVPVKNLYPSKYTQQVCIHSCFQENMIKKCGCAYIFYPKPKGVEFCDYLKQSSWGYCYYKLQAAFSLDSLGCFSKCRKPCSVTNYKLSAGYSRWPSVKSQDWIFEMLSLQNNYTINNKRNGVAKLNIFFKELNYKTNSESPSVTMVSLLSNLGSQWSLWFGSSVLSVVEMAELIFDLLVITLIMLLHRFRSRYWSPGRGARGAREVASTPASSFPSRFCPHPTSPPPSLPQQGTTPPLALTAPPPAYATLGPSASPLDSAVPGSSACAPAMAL
T1 sequence (Q9WU38 1-638): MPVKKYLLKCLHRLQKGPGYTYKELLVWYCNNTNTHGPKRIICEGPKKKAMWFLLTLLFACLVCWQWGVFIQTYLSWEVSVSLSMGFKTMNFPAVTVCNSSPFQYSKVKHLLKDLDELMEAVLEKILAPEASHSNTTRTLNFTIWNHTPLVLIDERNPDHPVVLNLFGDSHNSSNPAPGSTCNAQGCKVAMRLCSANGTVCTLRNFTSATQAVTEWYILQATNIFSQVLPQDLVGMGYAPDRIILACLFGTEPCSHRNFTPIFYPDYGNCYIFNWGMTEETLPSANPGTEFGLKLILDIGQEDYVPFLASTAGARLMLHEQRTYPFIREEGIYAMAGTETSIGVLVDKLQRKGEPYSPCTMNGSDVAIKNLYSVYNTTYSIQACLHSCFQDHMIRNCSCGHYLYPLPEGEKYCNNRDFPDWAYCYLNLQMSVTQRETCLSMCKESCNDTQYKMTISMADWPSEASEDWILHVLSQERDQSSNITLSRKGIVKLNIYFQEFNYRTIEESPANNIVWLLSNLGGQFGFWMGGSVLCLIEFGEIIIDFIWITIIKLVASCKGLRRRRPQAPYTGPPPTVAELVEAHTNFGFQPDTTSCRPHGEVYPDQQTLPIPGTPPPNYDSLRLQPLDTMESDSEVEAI
T1 sequence (Q9WU39 1-655): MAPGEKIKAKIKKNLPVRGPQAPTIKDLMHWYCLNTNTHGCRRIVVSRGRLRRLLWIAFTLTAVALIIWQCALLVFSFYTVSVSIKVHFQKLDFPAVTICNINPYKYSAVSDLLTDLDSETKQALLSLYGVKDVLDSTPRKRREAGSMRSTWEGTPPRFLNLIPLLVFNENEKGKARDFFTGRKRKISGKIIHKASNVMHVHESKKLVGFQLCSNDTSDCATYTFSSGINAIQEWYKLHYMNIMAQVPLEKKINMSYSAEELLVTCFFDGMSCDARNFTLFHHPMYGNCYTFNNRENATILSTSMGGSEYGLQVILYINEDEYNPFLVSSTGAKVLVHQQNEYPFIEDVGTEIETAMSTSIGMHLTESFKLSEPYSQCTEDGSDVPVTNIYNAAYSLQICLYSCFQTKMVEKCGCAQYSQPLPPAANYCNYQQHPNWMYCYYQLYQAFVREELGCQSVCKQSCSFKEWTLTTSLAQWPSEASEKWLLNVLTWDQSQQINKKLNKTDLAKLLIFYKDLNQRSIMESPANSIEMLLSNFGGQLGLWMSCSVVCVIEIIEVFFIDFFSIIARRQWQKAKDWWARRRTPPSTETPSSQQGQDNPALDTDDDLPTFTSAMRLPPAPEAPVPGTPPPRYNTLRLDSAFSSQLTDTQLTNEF

[2] = molecular target: T2, epithelial sodium channel (ENaC) (Homo sapiens, UniProt P37088+P51168+P51170); assay: Ussing chamber, amiloride-sensitive short-circuit current in NCI-H441 monolayers; assay type: cell-based
T2 sequence (P37088 1-669): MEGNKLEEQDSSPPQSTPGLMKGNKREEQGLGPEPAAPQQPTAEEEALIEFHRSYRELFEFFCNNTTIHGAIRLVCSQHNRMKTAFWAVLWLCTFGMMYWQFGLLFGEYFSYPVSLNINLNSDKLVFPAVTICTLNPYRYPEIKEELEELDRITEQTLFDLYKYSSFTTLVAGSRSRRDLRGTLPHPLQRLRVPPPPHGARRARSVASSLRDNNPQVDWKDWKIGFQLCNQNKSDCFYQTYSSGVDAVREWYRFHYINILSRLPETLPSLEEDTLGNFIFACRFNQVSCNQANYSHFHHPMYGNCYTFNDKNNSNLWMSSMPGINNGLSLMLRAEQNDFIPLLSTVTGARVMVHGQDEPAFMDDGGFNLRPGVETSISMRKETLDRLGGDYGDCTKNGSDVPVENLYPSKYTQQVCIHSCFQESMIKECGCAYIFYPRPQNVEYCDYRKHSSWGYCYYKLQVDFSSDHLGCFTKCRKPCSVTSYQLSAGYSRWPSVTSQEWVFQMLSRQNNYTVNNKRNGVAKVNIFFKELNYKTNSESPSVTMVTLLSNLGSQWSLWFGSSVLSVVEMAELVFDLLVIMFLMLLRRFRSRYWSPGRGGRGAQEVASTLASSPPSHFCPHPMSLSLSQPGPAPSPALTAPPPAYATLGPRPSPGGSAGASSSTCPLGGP
T2 sequence (P51168 1-640): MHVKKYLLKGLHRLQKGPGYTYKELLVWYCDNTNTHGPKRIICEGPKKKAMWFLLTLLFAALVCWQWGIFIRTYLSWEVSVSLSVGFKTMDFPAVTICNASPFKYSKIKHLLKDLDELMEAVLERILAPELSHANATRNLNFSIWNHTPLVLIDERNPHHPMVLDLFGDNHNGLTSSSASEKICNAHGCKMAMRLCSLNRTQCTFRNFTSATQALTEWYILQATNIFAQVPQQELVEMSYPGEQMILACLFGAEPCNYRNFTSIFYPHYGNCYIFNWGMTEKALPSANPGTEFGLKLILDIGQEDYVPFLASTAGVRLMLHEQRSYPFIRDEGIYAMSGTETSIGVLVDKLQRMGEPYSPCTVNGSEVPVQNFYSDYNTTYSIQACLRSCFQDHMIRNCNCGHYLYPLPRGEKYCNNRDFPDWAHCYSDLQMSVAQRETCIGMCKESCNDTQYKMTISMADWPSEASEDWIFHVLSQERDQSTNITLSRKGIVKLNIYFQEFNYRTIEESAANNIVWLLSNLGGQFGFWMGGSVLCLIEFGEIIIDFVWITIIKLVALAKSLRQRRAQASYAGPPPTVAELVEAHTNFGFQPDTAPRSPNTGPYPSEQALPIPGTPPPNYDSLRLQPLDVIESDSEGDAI
T2 sequence (P51170 1-649): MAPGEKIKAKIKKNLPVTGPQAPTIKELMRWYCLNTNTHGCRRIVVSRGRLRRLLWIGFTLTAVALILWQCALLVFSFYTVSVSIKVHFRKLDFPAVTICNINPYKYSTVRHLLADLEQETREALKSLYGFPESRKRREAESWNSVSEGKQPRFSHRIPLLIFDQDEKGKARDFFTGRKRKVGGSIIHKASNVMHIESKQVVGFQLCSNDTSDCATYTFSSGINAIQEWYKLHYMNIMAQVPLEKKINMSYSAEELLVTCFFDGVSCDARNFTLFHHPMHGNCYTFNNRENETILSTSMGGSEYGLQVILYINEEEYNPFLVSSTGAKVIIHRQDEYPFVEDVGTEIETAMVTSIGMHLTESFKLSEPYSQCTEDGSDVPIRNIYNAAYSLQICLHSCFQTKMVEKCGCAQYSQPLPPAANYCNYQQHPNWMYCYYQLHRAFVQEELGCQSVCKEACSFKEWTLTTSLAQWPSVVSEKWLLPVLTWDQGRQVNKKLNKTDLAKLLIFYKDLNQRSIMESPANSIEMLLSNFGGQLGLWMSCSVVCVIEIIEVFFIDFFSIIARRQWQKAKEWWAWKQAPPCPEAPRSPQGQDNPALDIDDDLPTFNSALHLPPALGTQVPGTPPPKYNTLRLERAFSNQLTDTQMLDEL

IC50 [1]: 3 nM
IC50 [2]: 8 nM
Substance: BI 1265162
